# Assay results from paper PMC3468358, “Clinical, virological and biochemical evidence supporting the association of HIV-1 reverse transcriptase polymorphism R284K and thymidine analogue resistance mutations M41L, L210W and T215Y in patients failing tenofovir/emtricitabine therapy” (Retrovirology, 2012).
# Like-named read-outs stand apart in the source and are kept apart here.
# Assays:
# [1] = test system: HIV-1 construct with RT M41L/L210W/T215Y/R284K; assay: Phenotypic drug susceptibility of recombinant HIV-1 in MT-4 cells (tetrazolium-based colorimetric method); type: cell-based
# Protocol: (§1) Site-directed mutagenesis was carried out with the Quik-Change Site-Directed Mutagenesis kit (Stratagene) by following the manufacturer’s instructions, and using plasmids p66RTB [64] or p66RTB(LY) as templates. The plasmid p66RTB contains the nucleotide sequence encoding for the 66-kDa subunit of HIV-1BH10 RT, and p66RTB(LY) encodes a p66 derivative with thymidine analogue resistance mutations M41L and T215Y. […] All introduced mutations were confirmed by DNA sequencing. Recombinant HIV-1 was obtained as previously described. […] MT-4 cells were used to propagate the recombinant virus. The nucleotide sequence of the RT-coding region was fully determined in order to check for reversions or undesired mutations. MT-4 cells and the deleted HXB2-D clone were obtained from the AIDS Reagent Program (Medical Research Council).
# (§2) Viable cells at different drug concentrations were quantified with a tetrazolium-based colorimetric method. Replication kinetics of wild-type and mutant viruses were assayed by infecting peripheral blood mononuclear cells (PBMCs) (mixed from two healthy donors), previously stimulated with phytohemagglutinin and interleukin 2 [26]. In these assays, viral replication rates were obtained from the amounts of HIV-1 p24^Gag antigen produced during the exponential phase of viral growth, as described previously. Growth competition assays in MT-4 cells were carried out as previously described, in the absence and in the presence of tenofovir disoproxil fumarate at concentrations ranging from 5 to 80 nM. A multiplicity of infection of 0.001 was used and competing viruses were mixed at a 50:50 ratio. RT inhibitors were obtained from the NIH AIDS Research and Reference Reagent Program.
# [2] = test system: HIV-1 construct with RT M41L/L210W/T215Y; assay: as above; type: cell-based
# Protocol: as §1, §2
# [3] = test system: HIV-1 construct with RT R284K; assay: as above; type: cell-based
# Protocol: as §1, §2
# [4] = test system: wild-type HXB2 virus carrying the RT sequence of BH10; assay: as above; type: cell-based; conditions: average ± SD of at least three tests
# Protocol: as §1, §2
# [5] = molecular target: T1, HIV-1 RT M41L/L210W/T215Y (Human immunodeficiency virus type 1 group M subtype B, UniProt P03366, L809W/M640L/T814Y); assay: Inhibition constants under steady-state nucleotide incorporation conditions; type: biochemical
# T1 construct: His6 (C); made in house; host or cells: E. coli XL1 Blue
# Protocol: (§3) RTs were expressed in E. coli XL1 Blue and purified as p66/p51 heterodimers by ionic exchange, followed by immobilized metal affinity chromatography on Ni^2+-nitriloacetic acid-agarose. The p66 subunit was obtained with a His6 tag at its C-terminal end to facilitate its purification by metal affinity chromatography. Purity of the enzymes was assessed by SDS-polyacrylamide gel electrophoresis and RT concentrations were determined by active site titration as described.
# (§4) Nucleotide incorporation reactions under steady-state conditions were carried out as previously described. However, in the preincubation buffer, active RT and template-primers D38/25PGA or D38T/25PGA were present at concentrations of 7–20 nM and 60 nM, respectively. Elongation rates were determined with dTTP concentrations ranging from 0.05 to 20 μM or with dATP concentrations ranging from 12 nM to 10 μM, using reaction volumes of 20 μl. Catalytic constants kcat and Km were determined after fitting the elongation data to the Michaelis–Menten equation as described. Inhibition constants (Ki) for AZTTP and tenofovir-DP were determined under the conditions used for obtaining the catalytic constants of dTTP and dATP incorporation, respectively. In order to distinguish between dTTP and AZTTP, elongation reactions were carried out under conditions that allowed the incorporation of two nucleotides (i.e. T at position +1 and A at position +2). For this purpose dATP was supplied at 1 μM in all assays. The competition between tenofovir-DP and dATP was analyzed with template-primer D38T/25PGA. Assays were carried out with variable concentrations of dATP (as indicated above) and 2 μM dTTP to facilitate further extension of the primer when the inhibitor was not incorporated at position +1 of the DNA primer. Data were analyzed by using Lineweaver-Burk plots. Nucleotide incorporation reactions under pre-steady-state conditions were carried out with template-primer D38/25PGA, as described.
# [6] = molecular target: T2, HIV-1 RT M41L/L210W/T215Y/R284K (Human immunodeficiency virus type 1 group M subtype B, UniProt P03366, L809W/M640L/R883K/T814Y); assay: as above; type: biochemical
# T2 construct: His6 (C); made in house; host or cells: E. coli XL1 Blue
# Protocol: as §3, §4
# [7] = molecular target: T3, WT HIV-1 RT (BH10) (Human immunodeficiency virus type 1 group M subtype B, UniProt P03366); assay: as above; type: biochemical
# T3 construct: His6 (C); made in house; host or cells: E. coli XL1 Blue
# Protocol: as §3, §4
# [8] = molecular target: T1, HIV-1 RT M41L/L210W/T215Y; type: biochemical; conditions: M41L/L210W/T215Y RT 210 nM, 3.2 mM ATP, terminated 26-mer primer on 38-nt DNA template 30 nM
# Protocol: (§5) The primer 25PGA was blocked at its 3´ end with d4TTP using terminal deoxynucleotidyltransferase (Roche), and excess nucleotides were eliminated by repeated passage through a mini Quick Spin column (Roche). The blocked primer was then labeled with [γ-^32P]ATP and T4 polynucleotide kinase and annealed to the DNA template D38, in order to obtain the template-primer D38/25PGA^d4T, used in the excision reactions. […] For this purpose, we preincubated the template-primer D38/^32P]25PGA (4.6 μM) with HIV-1BH10 RT (4 μM) in 65 μl of 50 mM Hepes pH 7.0 buffer, containing 15 mM NaCl, 15 mM magnesium acetate, 130 mM potassium acetate, 1 mM dithiothreitol, and 5% polyethylene glycol for 10 minutes at 37°C. Then, 35 μl of 6 mM AZTTP (diluted in the preincubation buffer) were added and incubated for another 30 minutes at 37°C to ensure that the primer was blocked completely. The RT was inactivated by heating the mixture for 10 minutes at 90°C. After slowly cooling the sample at room temperature, it was passaged several times through a mini Quick Spin column (Roche) to eliminate the free AZTTP. […] The excision of d4T monophosphate (d4TMP) from D38/25PGA^d4T was determined under single turnover conditions, as previously described.
# [9] = molecular target: T2, HIV-1 RT M41L/L210W/T215Y/R284K; type: biochemical; conditions: M41L/L210W/T215Y/R284K RT 210 nM, 3.2 mM ATP, terminated 26-mer primer on 38-nt DNA template 30 nM
# Protocol: as §5
# [10] = molecular target: T4, WT HIV-1 RT (Human immunodeficiency virus type 1 group M subtype B, UniProt P03366); type: biochemical
# T4 construct: His6 (C); made in house; host or cells: E. coli XL1 Blue
# Protocol: as §5
# [11] = molecular target: T5, HIV-1 RT R284K (Human immunodeficiency virus type 1 group M subtype B, UniProt P03366, R883K); assay: Kinetics of ATP-dependent excision from DNA/DNA template-primers (single turnover); type: biochemical; conditions: R284K RT 210 nM, 3.2 mM ATP, terminated 26-mer primer on 38-nt DNA template 30 nM
# T5 construct: His6 (C); made in house; host or cells: E. coli XL1 Blue
# Protocol: as §5
# [12] = molecular target: T1, HIV-1 RT M41L/L210W/T215Y; assay: Steady-state kinetics of nucleotide incorporation; type: biochemical; conditions: D38/25PGA for dTTP, D38T/25PGA for dATP
# Protocol: as §3, §4
# [13] = molecular target: T2, HIV-1 RT M41L/L210W/T215Y/R284K; assay: Steady-state kinetics of nucleotide incorporation; type: biochemical; conditions: D38/25PGA for dTTP, D38T/25PGA for dATP
# Protocol: as §3, §4
# [14] = molecular target: T3, WT HIV-1 RT (BH10); assay: Steady-state kinetics of nucleotide incorporation; type: biochemical; conditions: D38/25PGA for dTTP, D38T/25PGA for dATP
# Protocol: as §3, §4
# [15] = molecular target: T1, HIV-1 RT M41L/L210W/T215Y; assay: Single-nucleotide incorporation under pre-steady-state conditions; type: biochemical; conditions: D38/25PGA, 80 μM dTTP
# Protocol: as §4, with “Nucleotide incorporation reactions under pre-steady-state conditions were carried out with template-primer D38/25PGA, as described.” left out
# [16] = molecular target: T2, HIV-1 RT M41L/L210W/T215Y/R284K; assay: as above; type: biochemical; conditions: D38/25PGA, 80 μM dTTP
# Protocol: as §4, with “Nucleotide incorporation reactions under pre-steady-state conditions were carried out with template-primer D38/25PGA, as described.” left out
# [17] = Human immunodeficiency virus 1, MT4, average ± SD of at least three tests
# [18] = Human immunodeficiency virus 1, HXB2, MT4, WT virus
smiles,measurement,setting,value
Nc1nc(=O)n([C@@H]2CS[C@H](CO)O2)cc1F [Emtricitabine],fold increase in IC50 relative to the wild-type HXB2 virus control,[1],2.0
same,IC50,[1]; [17],295 ± 93.7 nM
same,fold increase in IC50 relative to the wild-type HXB2 virus control,[2],1.6
same,IC50,[2]; [17],227 ± 113 nM
same,fold increase in IC50 relative to the wild-type HXB2 virus control,[3],0.7
same,IC50,[3]; [17],104 ± 81.5 nM
same,IC50,[4]; [18],144 ± 69.9 nM
"CC(Cn1cnc2c(N)ncnc21)OCP(=O)(O)OP(=O)(O)OP(=O)(O)O (stereo in doubt) [Tenofovir-DP, tenofovir diphosphate]",Ki,"[5]; M41L/L210W/T215Y RT, competition with dATP, template-primer D38T/25PGA, read-out: Ki(Tenofovir-DP)",2630 ± 640 nM
same,Ki,"[6]; M41L/L210W/T215Y/R284K RT, competition with dATP, template-primer D38T/25PGA, read-out: Ki(Tenofovir-DP)",2540 ± 550 nM
same,Ki,"[7]; competition with dATP, template-primer D38T/25PGA, read-out: Ki(Tenofovir-DP)",3590 ± 260 nM
Cc1cn([C@H]2C[C@H](N=[N+]=[N-])[C@@H](COP(=O)(O)O)O2)c(=O)[nH]c1=O [AZTMP],kobs of ATP-dependent excision reaction,[8],0.0469 ± 0.00169 min⁻¹
same,kobs of ATP-dependent excision reaction,[9],0.0364 ± 0.00308 min⁻¹
same,kobs of ATP-dependent excision reaction,"[10]; WT RT 210 nM, 3.2 mM ATP, terminated 26-mer primer on 38-nt DNA template 30 nM",0.00282 ± 0.000148 min⁻¹
same,kobs of ATP-dependent excision reaction,[11],0.00242 ± 0.000122 min⁻¹
"Cc1cn([C@H]2C=C[C@@H](CO)O2)c(=O)[nH]c1=O [d4T, 2´,3´-didehydro-2´,3´-dideoxythymidine]",fold increase in IC50 relative to the wild-type HXB2 virus control,[1],1.0
same,IC50,[1]; [17],287 ± 84.5 nM
same,fold increase in IC50 relative to the wild-type HXB2 virus control,[2],0.8
same,IC50,[2]; [17],217 ± 75.5 nM
same,fold increase in IC50 relative to the wild-type HXB2 virus control,[3],0.5
same,IC50,[3]; [17],130 ± 24.8 nM
same,IC50,[4]; [18],276 ± 90.5 nM
Cc1cn([C@H]2C[C@H](O)[C@@H](COP(=O)(O)OP(=O)(O)OP(=O)(O)O)O2)c(=O)[nH]c1=O [dTTP],Km,[12],0.117 ± 0.0219 µM
same,kcat,[12],0.0588 ± 0.0015 s⁻¹
same,Km,[13],0.184 ± 0.0061 µM
same,kcat,[13],0.0943 ± 0.00383 s⁻¹
same,Km,[14],0.108 ± 0.0129 µM
same,kcat,[14],0.0523 ± 0.00917 s⁻¹
same,nucleotide incorporation rate (kobs),[15],21.5 ± 4.4 s⁻¹
same,nucleotide incorporation rate (kobs),[16],38.8 ± 9.4 s⁻¹
"Cc1cn([C@H]2C=C[C@@H](COP(=O)(O)O)O2)c(=O)[nH]c1=O [d4TMP, d4T monophosphate]",kobs of ATP-dependent excision reaction,[8],0.0372 ± 0.00158 min⁻¹
same,kobs of ATP-dependent excision reaction,[9],0.037 ± 0.00229 min⁻¹
same,kobs of ATP-dependent excision reaction,[10],0.00337 ± 0.000193 min⁻¹
same,kobs of ATP-dependent excision reaction,[11],0.00262 ± 0.000142 min⁻¹
Nc1ncnc2c1ncn2[C@H]1C[C@H](O)[C@@H](COP(=O)(O)OP(=O)(O)OP(=O)(O)O)O1 [dATP],Km,[12],0.0321 ± 0.0096 µM
same,kcat,[12],0.095 ± 0.0145 s⁻¹
same,Km,[13],0.0159 ± 0.0025 µM
same,kcat,[13],0.1682 ± 0.0245 s⁻¹
same,Km,[14],0.0258 ± 0.0067 µM
same,kcat,[14],0.0645 ± 0.0165 s⁻¹
Cc1cn([C@H]2C[C@H](N=[N+]=[N-])[C@@H](CO[P@](=O)(O)O[P@](=O)(O)OP(=O)(O)O)O2)c(=O)[nH]c1=O [AZTTP],Ki,[5],2180 ± 170 nM
same,Ki,[6],2320 ± 740 nM
same,Ki,"[7]; competition with dTTP, template-primer D38/25PGA, read-out: Ki(AZTTP)",2100 ± 380 nM
"CC(C)OC(=O)OCOP(=O)(CO[C@H](C)Cn1cnc2c(N)ncnc21)OCOC(=O)OC(C)C.O=C(O)/C=C/C(=O)O [Tenofovir, tenofovir disoproxil fumarate]",fold increase in IC50 relative to the wild-type HXB2 virus control,[1],2.7
same,IC50,"[1]; M41L/L210W/T215Y/R284K virus, average ± SD of at least three tests",18.1 ± 4.4 nM
same,fold increase in IC50 relative to the wild-type HXB2 virus control,[2],1.6
same,IC50,"[2]; M41L/L210W/T215Y virus, average ± SD of at least three tests",11 ± 4.6 nM
same,fold increase in IC50 relative to the wild-type HXB2 virus control,[3],1.8
same,IC50,"[3]; R284K virus, average ± SD of at least three tests",12.1 ± 5.3 nM
same,IC50,[4]; WT virus,6.7 ± 2.2 nM
